Measurements from patent US10881656B2, “HIF inhibitors and use thereof” (The General Hospital Corporation, priority 2008, dated 2021).

Columns and labels:
[1] = system: HUVEC; experiment: HUVEC proliferation assay; assay type: cell-based, human; settings: conditioned supernatant from compound-treated 786-O cells
Experimental: HUVEC cells were plated in a 96 well plate in HUVEC minimal medium (Chembrex, EBM-2). 24 hours later, medium was replaced with a 1:4 mix of tissue culture medium that had been conditioned from compound or DMSO-only treated 786-O cells and HUVEC minimal medium. HUVEC proliferation was quantified by a colorimetric proliferation assay (WST-1, Roche, Germany).
Conditioned tissue culture medium from compound-treated 786-O cells was tested for its ability to induce human umbilical vein endothelial cell (HUVEC) proliferation.

[2] = system: HIF-1a; experiment: Western blot for HIF-1a in hypoxic CWR22R and Hep3B cells; assay type: cell-based, human; settings: hypoxia
Experimental: (§1) The consensus sequence of the loop and the mandatory 5′ cytosine bulge are highlighted with light blue circles. […] Duplicate plates of 786-O derived lines expressing the putative wild-type or mutant HIF-1a IRE were cultured in the presence of compound as described for FIG. 1, with the exception that one set was placed at 1% oxygen for 24 hours following the first day's medium-change. Cells were treated with M, medium only; D, DMSO; or compounds, as indicated at the following concentrations: 40, 40 μM; 41, 30 μM; 76, 10 μM; 77, 5 μM. […] CWR22R or Hep3B cells were treated with compound and subjected to hypoxia as described above. B-Actin is shown for loading control. Cells were treated with M, medium only; D, DMSO; or compounds, as indicated at the following concentrations: 40, 40 μM; 41, 30 μM; 76, 20 μM; 77, 7.5 μM.
Hypoxia stabilized HIF-2a in VHL-reconstituted WT8 cells, but treatment with compounds diminished hypoxia-induced HIF-2a expression (FIG. 3C).

[3] = system: HIF-2a; experiment: HIF-2a protein stability (cycloheximide, 35S-methionine pulse chase); assay type: cell-based, human; settings: 786-O cells; for HIF-2a protein stability after cycloheximide: 10 μg/mL cycloheximide
Experimental: Cells were treated with medium only, DMSO, or compound as described for western blots. Following the second day of compound incubation, 10 μg/mL cycloheximide (CHx) was added to halt de novo protein synthesis and time points were taken. Protein quantification and Western blots were performed as described.
(§2) Cells were treated with medium only, DMSO, or compound as described for western blots. Following the second day of treatment, cells were washed twice in PBS and then placed into medium only, DMSO, or labeling medium (methionine minus DMEM supplemented with 1× glutamine and 5% dialyzed FBS) and pulse-labeled for 30 minutes at 37° C. with 0.5 mCi ^35S-Methionine (New England Nuclear) per p100 plate. Cells were washed twice in PBS and lysed with RIPA buffer supplemented with protease inhibitors. […] In the case of the pulse-chase experiment, two identically treated plates were placed into chasing medium (DMEM supplemented with 10% Fetal Clone I, 1× Glutamine and 3 mg/mL methionine), placed back into the 37° C. incubator and harvested after 1.5 and 3 hours. Immunoprecipitated samples were subjected to SDS-PAGE, enhanced in sodium salicylate, dried and exposed for 2-3 days before the film was quantified by densitometry.
Quantitative RT-PCR was performed on total RNA harvested from 7H4 cells treated with medium only, DMSO or compound. […] To test whether the compounds alter HIF-2a stability, the inventors assessed protein half-life following the addition of cycloheximide in compound versus DMSO-only treated cells (see FIG. 10).

[4] = system: HIF-2a mRNA translation; experiment: 35S-methionine pulse-label immunoprecipitation of HIF-2a (translation); assay type: cell-based, human; settings: 786-O cells
Experimental: as §2
The effect of HIF inhibitors on protein translation was determined by ^35S-methionine pulse labeling DMSO or compound treated cells. […] Pulse chase experiments confirm that this decrease is not attributable to any effect on the protein half-life (see FIG. 11).
To determine if PGJ2 decreases translation of the HIF2a message, the inventors evaluated the synthesis rate and stability of the newly synthesized HIF2a by an ^35S-methionine pulse chase experiment on PGJ2 or vehicle only DMSO treated 786-O cells. […] Loading control is 1/1000th of the cell lysate used in the respective immunoprecipitation directly loaded into an SDS-PAGE gel.

[5] = system: 786-O cells; experiment: Cellular toxicity at IC50 concentrations; assay type: cell-based, human
[6] = system: Transferrin Receptor 1 (TfR1) mRNA; experiment: qRT-PCR for Transferrin Receptor 1 mRNA; settings: for Transferrin Receptor 1 mRNA expression: compound treated 786-O cells
[7] = system: putative IRE in HIF-1a 5′-UTR; experiment: Luciferase reporter with putative HIF-1a IRE; assay type: cell-based, human; settings: 786-O derived reporter lines, normoxia or 1% oxygen
Experimental: as §1
The lack of a functional IRE in HIF-1a represents a clear dichotomy between the two HIF isoforms that allows their translation to be controlled by a different regulatory system.

[8] = system: HIF-2a 5′-UTR Iron-Responsive Element (IRE); experiment: Luciferase reporters with HIF-2a 5′-UTR / IRE in 786-O cells; assay type: cell-based, human; settings: for dependence of effect on the IRE (wild-type or mutant 5′-UTR IRE reporter): 786-O luciferase reporter lines; for dependence of effect on HIF-2a 5′-UTR: HIF-2a promoter luciferase with or without 5′-UTR

TfR1 mRNA stability ([6]; 786-O cells following addition of Actinomycin D) | SMILES | angiogenic activity of renal carcinoma cell supernatant (HUVEC proliferation) [1] | hypoxic induction of HIF-1a [2] | HIF-2a protein stability by 35S-methionine pulse chase [3] | HIF-2a protein stability after cycloheximide [3] | HIF-2a mRNA translation (newly synthesized HIF-2a protein) [4] | cellular toxicity [5] | Transferrin Receptor 1 mRNA expression [6] | effect on putative IRE in HIF-1a 5′-UTR [7] | dependence of effect on the IRE (wild-type or mutant 5′-UTR IRE reporter) [8] | dependence of effect on HIF-2a 5′-UTR [8] | effect on synthetic 5′-UTR stem loop reporter (CMV-SL over CMV) ([8]; 786-O cells, 10 μM)
 | C/C(=C\c1ccccc1)C(=O)CCN(C)C.Cl [Compound 40, 5-(dimethylamino)-2-methyl-1-phenyl-1-penten-3-one hydrochloride] | decrease the angiogenic activity of renal carcinoma cell supernatant | indirectly suppress hypoxic induction of HIF-1a in multiple cell types | have no affect on HIF-2a protein stability | no compound of 40, 41, 76 and 77 significantly affects HIF-2a stability | decrease HIF-2a mRNA translation | comparative lack of cellular toxicity at IC50 concentrations | increase expression of Transferrin Receptor 1 mRNA | do not affect putative IRE in HIF-1a 5′-UTR | work via the Iron-Responsive Element (IRE) | dependent upon presence of 5′-UTR | 
 | COc1ccc(O)c(/C=C/C(=O)c2c(O)cc(C)oc2=O)c1 [Compound 41, 4-hydroxy-3-[3-(2-hydroxy-5-meoxyphenyl)acryloyl]-6-methyl-2H-pyran-2-one] | decrease the angiogenic activity of renal carcinoma cell supernatant | indirectly suppress hypoxic induction of HIF-1a in multiple cell types | have no affect on HIF-2a protein stability | no compound of 40, 41, 76 and 77 significantly affects HIF-2a stability | decrease HIF-2a mRNA translation | comparative lack of cellular toxicity at IC50 concentrations | increase expression of Transferrin Receptor 1 mRNA | do not affect putative IRE in HIF-1a 5′-UTR | work via the Iron-Responsive Element (IRE) | dependent upon presence of 5′-UTR | 
decreases TfR1 mRNA stability | COC(=O)c1sccc1N/N=C(/C#N)S(C)(=O)=O [Compound 76, methyl 3-{2-[cyano(methylsulfonyl)methylene] hydrazino}thiophene-2-carboxylate] | decrease the angiogenic activity of renal carcinoma cell supernatant | indirectly suppress hypoxic induction of HIF-1a in multiple cell types | have no affect on HIF-2a protein stability | no compound of 40, 41, 76 and 77 significantly affects HIF-2a stability | decrease HIF-2a mRNA translation | comparative lack of cellular toxicity at IC50 concentrations | increase expression of Transferrin Receptor 1 mRNA | do not affect putative IRE in HIF-1a 5′-UTR | work via the Iron-Responsive Element (IRE) | dependent upon presence of 5′-UTR | 
 | CC1(C)CC(=O)C=C(Sc2ccc(C#N)cc2[N+](=O)[O-])S1 [Compound 77, 4-[(2,2-dimethyl-4-oxo-3,4-dihydro-2H-thiin-6-yl)thio]-3-nitrobenzonitrile] | decrease the angiogenic activity of renal carcinoma cell supernatant | indirectly suppress hypoxic induction of HIF-1a in multiple cell types | have no affect on HIF-2a protein stability | no compound of 40, 41, 76 and 77 significantly affects HIF-2a stability | decrease HIF-2a mRNA translation | comparative lack of cellular toxicity at IC50 concentrations | increase expression of Transferrin Receptor 1 mRNA | do not affect putative IRE in HIF-1a 5′-UTR | work via the Iron-Responsive Element (IRE) | dependent upon presence of 5′-UTR | 
 | CCCCC/C=C/C=C1/C(=O)C=C[C@@H]1C/C=C\CCCC(=O)O [PGJ2, 15-deoxy-Δ^12,14-prostaglandin J2] |  |  |  | no indication that PGJ2 affects HIF2a protein half-life | significantly decrease the amount of protein translated from the mRNA without decreasing the half-life of the protein |  |  |  | completely abolished PGJ2 sensitivity | decreased the luciferase activity derived from the UTR-containing plasmid but not the plasmid driven by the HIF promoter alone | no effect on the synthetic 5′-UTR element
